According to patent US12221453B2, “Substituted pyrazolo[5′,1′:2,3]pyrimido[5,4-b][1,4]oxazines as TYK2 inhibitors” (TAKEDA PHARMACEUTICAL COMPANY LIMITED, priority 2018, dated 2025):

Test system: IL-12 induced STAT4 phosphorylation mediated by TYK2/JAK2
Experiment: IL-12 induced pSTAT4 in human PBMC
Assay type: cell-based
Details: 1 hr compound, 1.7 ng/mL IL-12 for 30 minutes
How it was run: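 Thawed human PBMC were pre-incubated with compound for 1 hr at 37 °C (0.1% DMSO), then stimulated with 1.7 ng/mL IL-12 for 30 minutes. Phospho-STAT4 and total STAT4 were measured in cell lysates by MSD.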

Row | SMILES | IC50 [µM]
1 | CNc1cc(Nc2cccn([C@H]3CCC[C@H]3O)c2=O)nc2c(C(=O)N[C@H]3CC[C@]3(C)OC)cnn12 [Compound I-391] | < 0.1
2 | CNc1cc(-c2cn([C@H]3CC3(F)F)c3ncccc23)nc2c(C(=O)N[C@H]3CC[C@H]3O)cnn12 [Compound I-552] | < 0.1
3 | CNc1cc(-c2cn([C@H]3C[C@@H](COC)C3)c3ncccc23)nc2c(C(=O)N[C@H]3CC[C@@H]3OC)cnn12 [Compound I-933] | < 0.1
4 | O=C(N[C@@H]1C[C@@H]1F)c1cnn2c3c(c(Nc4cccc5ocnc45)nc12)OCCN3 [Compound I-752] | < 0.1
5 | CNc1cc(-c2cnc3n([C@H]4CCOC[C@@H]4O)cccc2-3)nc2c(C(=O)NC3CC3)cnn12 [Compound I-819] | < 0.1
6 | CNc1cc(-c2cn(C(C)C)c3nnccc23)nc2c(C(=O)NC3CC[C@@H]3OC)cnn12 (stereo partly shown) [Compound I-993] | < 0.1
7 | CNc1cc(Nc2cccn([C@@H]3CCC[C@@H]3O)c2=O)nc2c(C(=O)NC3CCC3(F)F)cnn12 (stereo partly shown) [Compound I-303] | < 0.1
8 | CNc1cc(Nc2cccn(-c3ncccc3F)c2=O)nc2c(C(=O)N[C@@H]3CC[C@H]3OC)cnn12 [Compound I-266] | < 0.1
9 | CNc1cc(Nc2cccn([C@H]3C[C@@H](OC)C3)c2=O)nc2c(C(=O)N[C@H]3CC[C@@H]3F)cnn12 [Compound I-174] | < 0.1
10 | CNc1cc(Nc2cccn(-c3ccccn3)c2=O)nc2c(C(=O)N[C@H]3CC[C@@H]3F)cnn12 [Compound I-201] | < 0.1
11 | CNc1cc(-c2cnc3n([C@H]4COC[C@@H]4O)cccc2-3)nc2c(C(=O)N[C@@H]3CC[C@H]3OC)cnn12 [Compound I-878] | < 0.1
12 | CNc1cc(Nc2cccn(C3COC3)c2=O)nc2c(C(=O)NC3CC[C@H]3F)cnn12 (stereo partly shown) [Compound I-160] | < 0.1
13 | CNc1cc(Nc2cccn([C@@H]3CCC[C@@H](OC)C3)c2=O)nc2c(C(=O)NC3CC[C@@H]3F)cnn12 (stereo partly shown) [Compound I-227] | < 0.1
14 | CNc1cc(Nc2cccn([C@H]3[C@@H]4COC[C@@H]43)c2=O)nc2c(C(=O)NC3CC[C@H]3F)cnn12 (stereo partly shown) [Compound I-203] | < 0.1
15 | CNc1cc(Nc2cccn(-c3ncccc3F)c2=O)nc2c(C(=O)NC3CC[C@H]3OC)cnn12 (stereo partly shown) [Compound I-265] | < 0.1
16 | CNc1cc(Nc2cccn(C3CCOCC3)c2=O)nc2c(C(=O)N[C@@H]3CCC3(F)F)cnn12 [Compound I-311] | < 0.1
17 | CNc1cc(Nc2cccn([C@@H]3C[C@H]3F)c2=O)nc2c(C(=O)N[C@@H]3C[C@H]3OC)cnn12 [Compound I-135] | < 0.1
18 | CNc1cc(-c2cn([C@@H]3CC3(F)F)c3ncccc23)nc2c(C(=O)NC3CC[C@H]3O)cnn12 (stereo partly shown) [Compound I-548] | < 0.1
19 | CNc1cc(Nc2cccn([C@H]3[C@@H]4COC[C@@H]43)c2=O)nc2c(C(=O)N[C@@H]3C[C@H]3OC)cnn12 [I-25, 5-((1-((1R,5S,6r)-3-Oxabicyclo[3.1.0]hexan-6-yl)-2-oxo-1,2-dihydropyridin-3-yl)amino)-N-((1R,2R)-2-methoxycyclopropyl)-7-(methylamino)pyrazolo[1,5-a]pyrimidine-3-carboxamide] | < 0.1
20 | CNc1cc(Nc2cccn(C3[C@H]4COC[C@@H]34)c2=O)nc2c(C(=O)NC3C[C@H]3OC)cnn12 (mixture of isomers) [I-24, 5-((1-((1R,5S,6r)-3-Oxabicyclo[3.1.0]hexan-6-yl)-2-oxo-1,2-dihydropyridin-3-yl)amino)-N-(2-methoxycyclopropyl)-7-(methylamino)pyrazolo[1,5-a]pyrimidine-3-carboxamide] | < 0.1
21 | CNc1cc(Nc2cccn([C@@H]3C[C@H]3F)c2=O)nc2c(C(=O)N[C@@H]3CC[C@H]3OC)cnn12 [I-53, 5-((1-((1R,2R)-2-Fluorocyclopropyl)-2-oxo-1,2-dihydropyridin-3-yl)amino)-N-((1R,2R)-2-methoxycyclobutyl)-7-(methylamino)pyrazolo[1,5-a]pyrimidine-3-carboxamide] | < 0.1
22 | CNc1cc(Nc2cccn(-c3ccc(C)nc3)c2=O)nc2c(C(=O)NC3CCC3(F)F)cnn12 (stereo not shown) [Compound I-324] | < 0.1
